Assay results from patent publication EP2599480A1 (priority 2011, dated 2013).
Read-outs that look alike come from different tables or passages of the source.

How the values were obtained:
[1] = system: NA of influenza virus A/Jena/5528/09; type: biochemical, clinical H1N1 isolate A/Jena/5528/09
[2] = system: NA of influenza virus A/Jena/5555/09; type: biochemical, clinical H1N1 isolate A/Jena/5555/09
in vitro = settings: dog; for CC50 at 72 h: mdck
[3] = target: NA of influenza virus A/PR/8/34 (Influenza A virus, UniProt P03468); experiment: biochemical; design: species or system H1N1 influenza virus A/Puerto Rico/8/34
Sequence of NA of influenza virus A/PR/8/34 (P03468 whole entry, looked up): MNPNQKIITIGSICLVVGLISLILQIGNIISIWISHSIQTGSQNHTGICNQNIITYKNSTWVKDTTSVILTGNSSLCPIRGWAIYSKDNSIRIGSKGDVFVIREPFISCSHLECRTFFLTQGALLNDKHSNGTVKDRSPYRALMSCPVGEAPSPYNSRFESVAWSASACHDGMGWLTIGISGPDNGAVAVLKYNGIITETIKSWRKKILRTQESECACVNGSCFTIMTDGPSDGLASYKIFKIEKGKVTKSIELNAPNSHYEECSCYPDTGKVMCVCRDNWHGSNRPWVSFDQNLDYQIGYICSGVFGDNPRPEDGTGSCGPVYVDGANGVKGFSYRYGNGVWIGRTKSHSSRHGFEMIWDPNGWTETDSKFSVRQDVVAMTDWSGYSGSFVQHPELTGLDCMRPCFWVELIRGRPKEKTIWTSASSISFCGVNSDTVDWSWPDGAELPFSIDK

O=S(=O)(O)c1ccc2cc(N=Nc3cc(S(=O)(=O)O)c4cccnc4c3O)ccc2c1 [NCI compound 87877]
IC50 [1]: 1.74 µM | IC50 [2]: 1.55 µM | CC50 at 72 h (in vitro): > 100 µM

O=S(=O)(O)c1ccc2c(N=Nc3ccc(N=Nc4ccccc4)cc3)c(O)ccc2c1 [NCI compound 65545]
IC50 [1]: 0.11 µM | IC50 [2]: 0.24 µM | CC50 at 72 h (in vitro): > 100 µM

CN(C)c1ccc(C=Nc2cc(S(=O)(=O)O)cc3cc(S(=O)(=O)O)cc(O)c23)cc1 [NCI compound 37200]
IC50 [1]: 1.18 µM | IC50 [2]: 0.94 µM | CC50 at 72 h (in vitro): > 100 µM

O=C(Nc1cc(S(=O)(=O)O)cc2cc(S(=O)(=O)O)ccc12)c1ccccc1 [NCI compound 37172]
CC50 (in vitro): > 100 µM

O=C(O)c1cc(C(=O)CCCC(=O)c2cc(C(=O)O)c(O)c3ccccc23)c2ccccc2c1O [NCI compound 292216]
CC50 at 72 h (in vitro): > 100 µM

CCOc1ccc(N=Nc2ccc(C=Nc3ccc4c(O)cc(S(=O)(=O)O)cc4c3)cc2)cc1 [NCI compound 37220]
IC50 ([3]; IC50 for A/PR/8/34): 0.42 µM | CC50 at 72 h (in vitro): > 100 µM

Cc1ccc(Nc2nnc(CSc3ccc(Cl)cc3)s2)c(S(=O)(=O)O)c1 [NCI compound 369693]
CC50 at 72 h (in vitro): > 100 µM

O=C(O)c1cc2ccccc2c(N=Nc2ccc(S(=O)(=O)Nc3nccs3)cc2)c1O [NCI compound 134135]
IC50 [1]: 0.24 µM | IC50 [2]: 0.31 µM | CC50 at 72 h (in vitro): > 100 µM

Nc1c(N=Nc2ccc(S(=O)(=O)Nc3nccs3)cc2)cc(S(=O)(=O)O)c2ccccc12 [NCI compound 31348]
CC50 at 72 h (in vitro): > 100 µM

Cc1nnc(NS(=O)(=O)c2ccc(N=Nc3c(O)c(C(=O)O)cc4ccccc34)cc2)s1 [NCI compound 134131]
CC50 at 72 h (in vitro): > 100 µM

O=[N+]([O-])c1ccc(N=Nc2c(O)ccc3cc(S(=O)(=O)O)ccc23)cc1 [NCI compound 45538]
CC50 at 72 h (in vitro): > 100 µM

N=C(N)NS(=O)(=O)c1ccc(N=Nc2c(O)c(C(=O)O)cc3ccccc23)cc1 [NCI compound 134139]
CC50 at 72 h (in vitro): > 100 µM

O=C(Nc1cc(S(=O)(=O)O)cc2cc(S(=O)(=O)O)cc(O)c12)c1ccccc1 [NCI compound 16169]
CC50 (in vitro): > 100 µM

Nc1ccc(C(=O)Nc2ccc(S(=O)(=O)O)c3cccc(O)c23)cc1 [NCI compound 37609]
CC50 at 72 h (in vitro): > 100 µM

CC(=O)Nc1cc(S(=O)(=O)O)cc2cc(S(=O)(=O)O)cc(O)c12 [NCI compound 74489]
CC50 at 72 h (in vitro): > 100 µM

Nc1c(N=Nc2ccc(S(=O)(=O)Nc3ccccn3)cc2)cc(S(=O)(=O)O)c2ccccc12 [NCI compound 30456]
IC50 [3]: < 0.12 µM

O=[N+]([O-])c1ccc(N=Nc2c(O)ccc3cc(S(=O)(=O)O)cc(S(=O)(=O)O)c23)cc1 [NCI compound 45539]
CC50 at 72 h (in vitro): > 100 µM

Cc1cc(S(=O)(=O)O)ccc1N=Nc1ccc(N=Nc2c(O)ccc3ccccc23)c(C)c1 [NCI compound 66221]
IC50 ([3]; IC50 for A/PR/8/34): 0.29 µM

O=[N+]([O-])c1cccc(N=Nc2c(O)c(S(=O)(=O)O)cc3cc(S(=O)(=O)O)ccc23)c1 [NCI compound 45541]
CC50 at 72 h (in vitro): > 100 µM

CCCCCC(=O)Nc1cc(S(=O)(=O)O)cc2cc(S(=O)(=O)O)cc(O)c12 [NCI compound 97290]
CC50 at 72 h (in vitro): > 100 µM

Nc1ccc(C(=O)Nc2cc(S(=O)(=O)O)cc3cccc(O)c23)cc1 [NCI compound 37176]
CC50 (in vitro): > 100 µM

Nc1ccc(C(=O)Nc2cc(S(=O)(=O)O)cc3cc(S(=O)(=O)O)ccc23)cc1 [NCI compound 37180]
CC50 (in vitro): > 100 µM

Cc1ccc(S(=O)(=O)Oc2cc(S(=O)(=O)O)cc3cc(S(=O)(=O)O)cc(N)c23)cc1 [NCI compound 16168]
IC50 ([3]; IC50 for A/PR/8/34): 5.91 µM | CC50 (in vitro): > 100 µM

Cc1cc(NS(=O)(=O)c2ccc(N=Nc3c(O)c(C(=O)O)cc4ccccc34)cc2)nc(C)n1 [NCI compound 134140]
CC50 at 72 h (in vitro): > 100 µM

Cc1ccc(N=Nc2c(O)c(C(=O)O)cc3ccccc23)cc1C [NCI compound 134141]
CC50 at 72 h (in vitro): > 100 µM

O=C(O)c1c(O)c(N=Nc2ccc(S(=O)(=O)Nc3ccccn3)cc2)cc2ccccc12 [NCI compound 134145]
CC50 at 72 h (in vitro): > 100 µM

O=C(O)c1cc2ccccc2c(N=Nc2ccc(S(=O)(=O)Nc3ccccn3)cc2)c1O [NCI compound 134134]
IC50 ([3]; IC50 for A/PR/8/34): 0.45 µM

Nc1cc(S(=O)(=O)O)cc2cc(S(=O)(=O)O)c(N=Nc3cc(S(=O)(=O)O)cc4cc(S(=O)(=O)O)cc(O)c34)c(O)c12 [NCI compound 162530]
CC50 at 72 h (in vitro): > 100 µM

O=S(=O)(O)c1cc2cccc(S(=O)(=O)O)c2c(O)c1N=Nc1ccccc1 [NCI compound 45549]
IC50 ([3]; IC50 for A/PR/8/34): 4.85 µM | CC50 at 72 h (in vitro): > 100 µM

O=[N+]([O-])c1ccc(N=Nc2c(O)c(S(=O)(=O)O)cc3cc(S(=O)(=O)O)ccc23)cc1 [NCI compound 45540]
CC50 at 72 h (in vitro): > 100 µM

O=C(O)c1cc2ccccc2c(N=Nc2ccc(S(=O)(=O)Nc3ncccn3)cc2)c1O [NCI compound 134136]
CC50 at 72 h (in vitro): > 100 µM

O=C(O)c1cc2ccccc2c(N=Nc2ccc(S(=O)(=O)O)cc2)c1O [NCI compound 134138]
IC50 [1]: 3.06 µM | IC50 [2]: 2.9 µM | CC50 at 72 h (in vitro): > 100 µM

CC1NOC(NS(=O)(=O)c2ccc(N=Nc3c(O)c(C(=O)O)cc4ccccc34)cc2)C1C (centres unmarked) [NCI compound 134132]
IC50 ([3]; read-out: IC50 for A/PR/8/34): 0.64 µM

Cc1cccc(NS(=O)(=O)c2ccc(N=Nc3c(O)c(C(=O)O)cc4ccccc34)cc2)n1 [NCI compound 134133]
IC50 [3]: < 0.12 µM
